Assay results: PMC7037862, “Tricyclic Nucleobase Analogs and Their Ribosides as Substrates and Inhibitors of Purine-Nucleoside Phosphorylases III. Aminopurine Derivatives” (Molecules, 2020)

Experiments:
E. coli PNP [1] = biological target: T1, E. coli PNP (Escherichia coli, UniProt P0ABP8); experiment: Fluorescence titration of E. coli PNP with ligand (enzyme-ligand complexes); format: binding; details: 40 mM phosphate buffer, pH 7, 20 °C; protein 11 μM per subunit
T1 construct: made in house; host or cells: E. coli
Method: Additionally, the fluorescence excitation spectra reveal fluorescence energy transfer (FRET) from the protein to the complexed ligand, since they show marked enhancement in the region 270–280 nm, where the tyrosine residues of the PNP molecule absorb (Figure 10).
Figure 10 Changes in fluorescence excitation (a) and emission spectra (b), observed during the titration of E. coli PNP with N^2,3-etheno-2-aminopurine (2). […] Spectra of the free ligand (3.5 μM) are given for comparison (points). Excitation spectrum of the protein, monitored at 310 nm, is given in black. Conditions: 40 mM phosphate, pH 7, at 20 °C. Concentration of protein was 10.1 μM (per subunit); that of the titrant was 0 to 3.5 μM. Lower panels: Fluorescence difference spectra, calculated from data presented on panels (a) and (b), (c) difference excitation (observed at 380 nm), (d) difference emission spectra, excited at 275 nm. Substrate concentrations are 0.17, 0.69, 1.37, 2.36 and 3.31 μM.
Etheno-tubercidine (6) forms somewhat similar fluorescent complexes with the E. coli PNP. As shown below, FRET from the protein to the ligand is evident in the excitation spectra (Figure 11), and the ligand fluorescence blue shifted from 415 to ca. 390 nm (Figure 11b,c). In this case more than 60% of protein fluorescence is quenched when protein binding sites are saturated (cf. Figure 11). […]

E. coli PNP [2] = biological target: T1, E. coli PNP; experiment: Inhibition of phosphorolysis of purine nucleosides catalyzed by E. coli PNP; format: biochemical; details: competitive inhibition of phosphorolysis of purine nucleosides; read-out: inhibition constant, Ki
Method: (§1) Etheno-tubercidine (6) is therefore a good candidate to observe enzyme-ligand complexes by spectral methods, as shown below. No inhibition of the calf PNP was observed, at least in moderate concentrations (up to 50 μM) that we used.
(§2) Enzymatic ribosylation reactions were carried out in 1 mL cuvettes (pathlength 4 mm) in ~50 mM HEPES buffer, pH 7.3, using 0.5 mM R1P as a ribose source. Reactions were followed fluorimetrically (see Section 2.4). On a larger scale (2–4 mg), the reactions were run in Eppendorf tubes, volume 2–3 mL, using either R1P (3–10 mM) or 7-methylguanosine as ribose sources. Products were purified by semi-preparative HPLC, concentrated and the final solutions kept frozen. Their structure has been confirmed by NMR (see Section 2.4 and Supplementary Materials) and by MS: comp. 3: m/z = 292.10385, comp. 4: m/z = 292.10400, comp. 5: m/z = 292.10398, calculated for C12H13N5O4 + H: 292.10403. Phosphorolysis reactions were run in 40–50 mM phosphate buffer, pH 7.0 or 6.5, and followed spectrally or fluorimetrically. Kinetic parameters were calculated by standard methods.

calf PNP = biological target: T2, calf PNP (Bos taurus, UniProt P55859); experiment: Inhibition of calf PNP; format: biochemical; details: concentrations up to 50 μM
T2 construct: made in house; host or cells: E. coli
T2 sequence (P55859 1-289): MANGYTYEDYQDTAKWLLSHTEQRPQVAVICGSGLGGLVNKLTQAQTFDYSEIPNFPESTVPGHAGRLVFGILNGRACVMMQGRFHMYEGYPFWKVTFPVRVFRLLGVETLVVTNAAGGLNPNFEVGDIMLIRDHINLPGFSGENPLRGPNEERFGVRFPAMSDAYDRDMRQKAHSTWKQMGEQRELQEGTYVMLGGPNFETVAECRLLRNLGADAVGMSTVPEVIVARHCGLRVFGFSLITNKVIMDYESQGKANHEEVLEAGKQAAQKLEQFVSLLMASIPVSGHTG
Method: as §1, §2

[3] = Ionization constants (pKa), determined spectrophotometrically; format: physicochemical; details: phosphate and/or acetate buffers, protonation, read-out: pKa (protonation)
Method: Fluorescence spectra were measured on a Varian Eclipse instrument (Varian Corp., Palo Alto, CA, USA), and UV absorption kinetic experiments were performed on a Cary 5000 (Varian Corp., Palo Alto, CA, USA) thermostated spectrophotometer. Fluorescence yields were determined relative to tryptophan (0.15) or 1,N^6-ethenoadenosine in water (0.56, see ref. [2]). Emission spectra were measured in semi-micro cuvettes, pathlength 4 mm, to diminish the inner-filter effect. Typical spectral resolution was 2.5 nm. The ionization constants (pKa values) were determined spectrophotometrically using 20–50 mM phosphate and/or acetate buffers.

T1 sequence (P0ABP8 2-239): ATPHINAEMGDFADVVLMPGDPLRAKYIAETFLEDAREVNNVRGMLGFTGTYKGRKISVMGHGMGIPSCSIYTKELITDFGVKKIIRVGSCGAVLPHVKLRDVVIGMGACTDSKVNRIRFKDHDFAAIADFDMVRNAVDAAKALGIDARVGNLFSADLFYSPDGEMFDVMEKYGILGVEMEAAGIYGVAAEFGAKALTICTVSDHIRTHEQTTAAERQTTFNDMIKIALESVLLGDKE

OC[C@H]1O[C@@H](n2ccc3c2ncn2ccnc32)[C@H](O)[C@@H]1O [Compound 6, 1,N^6-etheno-tubercidine]
protein fluorescence quenched at saturation of binding sites (E. coli PNP [1]): more than 60% | Ki (E. coli PNP [2]): ~4.5 µM | inhibition of the calf PNP (calf PNP): No inhibition | pKa [3]: 5.2
